# Toxic doses and inconclusive results are not listed.
# Tested on: CD2F1 mice, L1210 leukemia ip, survival T/C
# Test: NCI In Vivo Anticancer Drug Screen. Data for tumor model L1210 Leukemia (intraperitoneal) in CD2F1 (CDF1) mice
# Conditions: higher = longer survival
# How it was run: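 Antitumor effect is scored in animals hosting a serially transplanted tumor. Values compare compound-dosed animals against vehicle-only controls as a simple quotient.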
# [1] = endpoint: median survival time, dose: 25.0 mg/kg/injection, schedule: Q01DX005 (ip), vehicle: saline
# [2] = endpoint: median survival time, dose: 50.0 mg/kg/injection, schedule: Q01DX005 (ip), vehicle: saline
# [3] = endpoint: median survival time, dose: 100.0 mg/kg/injection, schedule: Q01DX005 (ip), vehicle: saline
# [4] = endpoint: mean survival time, dose: 100.0 mg/kg/injection, schedule: Q01DX009 (ip), vehicle: saline with Tween-80
# [5] = endpoint: mean survival time, dose: 100.0 mg/kg/injection, schedule: Q04DX003 (ip), vehicle: saline with Tween-80
# [6] = endpoint: mean survival time, dose: 200.0 mg/kg/injection, schedule: Q01DX009 (ip), vehicle: saline with Tween-80
# [7] = endpoint: mean survival time, dose: 200.0 mg/kg/injection, schedule: Q04DX003 (ip), vehicle: saline with Tween-80
# [8] = endpoint: mean survival time, dose: 400.0 mg/kg/injection, schedule: Q01DX009 (ip), vehicle: saline with Tween-80
# [9] = endpoint: mean survival time, dose: 400.0 mg/kg/injection, schedule: Q04DX003 (ip), vehicle: saline with Tween-80
# [10] = endpoint: mean survival time, dose: 75.0 mg/kg/injection, schedule: Q01DX001 (ip), vehicle: saline
# [11] = endpoint: mean survival time, dose: 150.0 mg/kg/injection, schedule: Q01DX001 (ip), vehicle: saline
# [12] = endpoint: mean survival time, dose: 50.0 mg/kg/injection, schedule: Q01DX009 (ip), vehicle: saline with Tween-80
# [13] = endpoint: mean survival time, dose: 100.0 mg/kg/injection, schedule: Q04DX002 (ip), vehicle: saline with Tween-80
# [14] = endpoint: mean survival time, dose: 100.0 mg/kg/injection, schedule: Q01DX001 (ip), vehicle: saline with Tween-80
# [15] = endpoint: mean survival time, dose: 200.0 mg/kg/injection, schedule: Q01DX001 (ip), vehicle: saline with Tween-80
# [16] = endpoint: mean survival time, dose: 400.0 mg/kg/injection, schedule: Q01DX001 (ip), vehicle: saline with Tween-80
# [17] = endpoint: mean survival time, dose: 100.0 mg/kg/injection, schedule: Q01DX009 (ip), vehicle: saline
# [18] = endpoint: mean survival time, dose: 200.0 mg/kg/injection, schedule: Q01DX009 (ip), vehicle: saline
smiles,measurement,setting,value
C[C@@]1(CO)[C@H](O)CC[C@@]2(C)[C@H]1CC[C@H]1C[C@@H]3C[C@@]12CC[C@@]3(O)COC(=O)CN,T/C,"endpoint: median survival time, dose: 0.2 mg/kg/injection, schedule: Q01DX009 (ip), vehicle: saline + alcohol",100 % of control
same,T/C,"endpoint: median survival time, dose: 0.4 mg/kg/injection, schedule: Q01DX009 (ip), vehicle: saline + alcohol",106 % of control
same,T/C,"endpoint: median survival time, dose: 0.8 mg/kg/injection, schedule: Q01DX009 (ip), vehicle: saline + alcohol",107 % of control
same,T/C,"endpoint: median survival time, dose: 1.6 mg/kg/injection, schedule: Q01DX009 (ip), vehicle: saline + alcohol",102 % of control
same,T/C,"endpoint: median survival time, dose: 5.0 mg/kg/injection, schedule: Q03HX027 (ip), vehicle: saline + alcohol",101 % of control
same,T/C,"endpoint: median survival time, dose: 6.25 mg/kg/injection, schedule: Q01DX009 (ip), vehicle: saline + alcohol",105 % of control
same,T/C,"endpoint: median survival time, dose: 10.0 mg/kg/injection, schedule: Q03HX027 (ip), vehicle: saline + alcohol",109 % of control
same,T/C,"endpoint: median survival time, dose: 12.5 mg/kg/injection, schedule: Q01DX009 (ip), vehicle: saline + alcohol",106 % of control
same,T/C,"endpoint: median survival time, dose: 20.0 mg/kg/injection, schedule: Q03HX027 (ip), vehicle: saline + alcohol",116 % of control
same,T/C,[1],112 % of control
same,T/C,"endpoint: median survival time, dose: 25.0 mg/kg/injection, schedule: Q01DX009 (ip), vehicle: saline + alcohol",107 % of control
same,T/C,"endpoint: median survival time, dose: 36.0 mg/kg/injection, schedule: Q01DX005 (ip), vehicle: saline",115 % of control
same,T/C,"endpoint: median survival time, dose: 36.0 mg/kg/injection, schedule: Q01DX009 (ip), vehicle: saline",110 % of control
same,T/C,[2],116 % of control
same,T/C,"endpoint: median survival time, dose: 50.0 mg/kg/injection, schedule: Q01DX009 (ip), vehicle: saline + alcohol",116 % of control
same,T/C,"endpoint: median survival time, dose: 60.0 mg/kg/injection, schedule: Q01DX005 (ip), vehicle: saline",116 % of control
same,T/C,"endpoint: median survival time, dose: 60.0 mg/kg/injection, schedule: Q01DX009 (ip), vehicle: saline",110 % of control
same,T/C,[3],122 % of control
same,T/C,"endpoint: median survival time, dose: 100.0 mg/kg/injection, schedule: Q01DX009 (ip), vehicle: saline",151 % of control
same,T/C,"endpoint: median survival time, dose: 166.6 mg/kg/injection, schedule: Q01DX009 (ip), vehicle: saline",153 % of control
same,T/C,"endpoint: median survival time, dose: 12.5 micrograms/kg/injection, schedule: Q01DX009 (ip), vehicle: saline + alcohol",103 % of control
same,T/C,"endpoint: median survival time, dose: 25.0 micrograms/kg/injection, schedule: Q01DX009 (ip), vehicle: saline + alcohol",103 % of control
same,T/C,"endpoint: median survival time, dose: 50.0 micrograms/kg/injection, schedule: Q01DX009 (ip), vehicle: saline + alcohol",103 % of control
same,T/C,"endpoint: median survival time, dose: 100.0 micrograms/kg/injection, schedule: Q01DX009 (ip), vehicle: saline + alcohol",101 % of control
same,T/C,"endpoint: median survival time, dose: 200.0 micrograms/kg/injection, schedule: Q01DX009 (ip), vehicle: saline + alcohol",102 % of control
c1ccc(-c2nc3c(c(-c4ccccc4)n2)CCO3)cc1,T/C,[4],95 % of control
same,T/C,[5],98 % of control
same,T/C,[6],93 % of control
same,T/C,[7],100 % of control
same,T/C,[8],95 % of control
same,T/C,[9],90 % of control
NC(CCC(=O)NC(=O)OCc1ccccc1)C(=O)O (stereo not given),T/C,[5],93 % of control
same,T/C,[7],101 % of control
same,T/C,[9],90 % of control
COc1ccc(NC(=O)Oc2ccc(Cl)c(C)c2)cc1,T/C,[4],89 % of control
same,T/C,[8],92 % of control
O=C1c2cccc(Oc3ccccc3)c2C(=O)c2cccc(Oc3ccccc3)c21,T/C,[4],94 % of control
same,T/C,[5],96 % of control
same,T/C,[6],89 % of control
same,T/C,[7],97 % of control
same,T/C,[8],98 % of control
same,T/C,[9],94 % of control
N#CC12CC3CC(CC(C3)C1)C2,T/C,"endpoint: mean survival time, dose: 5.0 mg/kg/injection, schedule: Q04DX003 (ip), vehicle: saline with Tween-80",104 % of control
same,T/C,"endpoint: mean survival time, dose: 10.0 mg/kg/injection, schedule: Q04DX003 (ip), vehicle: saline with Tween-80",104 % of control
same,T/C,"endpoint: mean survival time, dose: 20.0 mg/kg/injection, schedule: Q04DX003 (ip), vehicle: saline with Tween-80",100 % of control
COC/C=N/N(C)C,T/C,[10],100 % of control
same,T/C,[11],96 % of control
NC(=O)c1c(Br)n(C2OC(CO)C(O)C2O)c2ncnc(N)c12 (stereo not given),T/C,[12],105 % of control
C[C@@H]1C[C@@]2(C)[C@@H](CC[C@@H]3[C@@H]2CC[C@@]2(C)[C@H]3CC[C@]2(C)O)CC1=O,T/C,"endpoint: mean survival time, dose: 25.0 mg/kg/injection, schedule: Q01DX009 (ip), vehicle: saline with Tween-80",95 % of control
same,T/C,[12],95 % of control
same,T/C,[4],94 % of control
same,T/C,[5],91 % of control
Nc1ccn(C2CC3OCC3O2)c(=O)n1 (stereo not given),T/C,"endpoint: median survival time, dose: 12.5 mg/kg/injection, schedule: Q01DX005 (ip), vehicle: saline",97 % of control
same,T/C,[1],105 % of control
same,T/C,[2],103 % of control
same,T/C,[3],110 % of control
same,T/C,"endpoint: median survival time, dose: 200.0 mg/kg/injection, schedule: Q01DX005 (ip), vehicle: saline",104 % of control
CC1=CC(S)NC(=S)N1 (stereo not given),T/C,[13],103 % of control
same,T/C,"endpoint: mean survival time, dose: 200.0 mg/kg/injection, schedule: Q04DX002 (ip), vehicle: saline with Tween-80",95 % of control
same,T/C,"endpoint: mean survival time, dose: 400.0 mg/kg/injection, schedule: Q04DX002 (ip), vehicle: saline with Tween-80",106 % of control
Cc1cc2c(cc1C)C(=O)C(N(C)C)=CC2=O,T/C,[4],102 % of control
same,T/C,[6],98 % of control
same,T/C,[8],91 % of control
CCOC(=O)Cc1ccnc(C)c1,T/C,[14],93 % of control
same,T/C,[4],100 % of control
same,T/C,[15],94 % of control
same,T/C,[6],103 % of control
same,T/C,[16],96 % of control
O=C1c2ccccc2C(=O)c2c(O)ccc(O)c21,T/C,"endpoint: mean survival time, dose: 50.0 mg/kg/injection, schedule: Q01DX009 (ip), vehicle: saline",106 % of control
same,T/C,[14],88 % of control
same,T/C,[17],97 % of control
same,T/C,[5],94 % of control
same,T/C,[15],91 % of control
same,T/C,[18],109 % of control
same,T/C,[7],102 % of control
same,T/C,[16],86 % of control
same,T/C,[9],103 % of control
CCN(CC)C(=S)SC,T/C,[10],104 % of control
same,T/C,[11],106 % of control
CCOC(=O)C(C)Sc1n[nH]c(=O)[nH]c1=O (stereo not given),T/C,"endpoint: mean survival time, dose: 12.5 mg/kg/injection, schedule: Q01DX005 (ip), vehicle: distilled water + Tween-80",96 % of control
same,T/C,"endpoint: mean survival time, dose: 25.0 mg/kg/injection, schedule: Q01DX005 (ip), vehicle: distilled water + Tween-80",96 % of control
same,T/C,"endpoint: mean survival time, dose: 50.0 mg/kg/injection, schedule: Q01DX005 (ip), vehicle: distilled water + Tween-80",96 % of control
same,T/C,"endpoint: mean survival time, dose: 100.0 mg/kg/injection, schedule: Q01DX005 (ip), vehicle: distilled water + Tween-80",92 % of control
same,T/C,"endpoint: mean survival time, dose: 200.0 mg/kg/injection, schedule: Q01DX005 (ip), vehicle: distilled water + Tween-80",94 % of control
O=C(Nc1cccc(C(F)(F)F)c1)c1cccc(Cl)c1,T/C,"endpoint: mean survival time, dose: 100.0 mg/kg/injection, schedule: Q01DX009 (ip), vehicle: saline + alcohol",94 % of control
same,T/C,"endpoint: mean survival time, dose: 100.0 mg/kg/injection, schedule: Q04DX003 (ip), vehicle: saline + alcohol",95 % of control
same,T/C,"endpoint: mean survival time, dose: 200.0 mg/kg/injection, schedule: Q01DX009 (ip), vehicle: saline + alcohol",94 % of control
same,T/C,"endpoint: mean survival time, dose: 200.0 mg/kg/injection, schedule: Q04DX003 (ip), vehicle: saline + alcohol",97 % of control
same,T/C,"endpoint: mean survival time, dose: 400.0 mg/kg/injection, schedule: Q01DX009 (ip), vehicle: saline + alcohol",98 % of control
same,T/C,"endpoint: mean survival time, dose: 400.0 mg/kg/injection, schedule: Q04DX003 (ip), vehicle: saline + alcohol",101 % of control
CN(C)NC(=O)CC(N)C(=O)O (stereo not given),T/C,[5],101 % of control
same,T/C,[7],101 % of control
same,T/C,[9],102 % of control
Clc1ccc(Oc2ccccc2)cc1,T/C,[14],96 % of control
same,T/C,[15],86 % of control
same,T/C,[16],91 % of control
CCOC(=O)CC/C=C\Cc1c(OC)c(C)c2c(c1OC(=O)Nc1ccc(C(C)=O)cc1)C(=O)OC2,T/C,[13],121 % of control
COc1ccc(N)cc1OC,T/C,[17],96 % of control
same,T/C,[18],102 % of control
same,T/C,"endpoint: mean survival time, dose: 400.0 mg/kg/injection, schedule: Q01DX009 (ip), vehicle: saline",98 % of control
CCOC(=O)C1CC1C#N (stereo not given),T/C,[5],102 % of control
same,T/C,[7],98 % of control
same,T/C,[9],97 % of control
O=C(O)C(O)C(O)C(O)C(O)CO.[Mn] (stereo not given),T/C,[12],106 % of control
same,T/C,"endpoint: mean survival time, dose: 50.0 mg/kg/injection, schedule: Q04DX003 (ip), vehicle: saline with Tween-80",100 % of control
same,T/C,[4],107 % of control
same,T/C,[5],102 % of control
same,T/C,[6],118 % of control
same,T/C,[7],104 % of control
CCCCNC(=O)Nc1cccc2c(O)cccc12,T/C,"endpoint: mean survival time, dose: 50.0 mg/kg/injection, schedule: Q01DX009 (ip), vehicle: DMSO",97 % of control
